Experiments:
[1] = tested on: children with refractory epilepsy; conditions: 0.5 to 1 mg/kg/day; cited from earlier work
[2] = tested on: zebrafish model of Dravet syndrome; conditions: in vivo; cited from earlier work
[3] = Preliminary pharmacokinetic experiments in DBA/1 mice; assay type: in vivo, mouse; conditions: 16 h after 15 mg/kg
Method: DBA/1 mice show consistent susceptibility to sudden death due to S-IRA immediately following AGSz unless resuscitation is rapidly provided. In the present study FFA exerted a significant dose- and time-dependent blockade of S-IRA and AGSz. […] The significant incidence of selective S-IRA blockade was also seen in the mice that were tested initially at 16 h following 15 mg/kg of FFA (FIG. 4B), further confirming the effectiveness of the drug and the time-course of the effect. […] Furthermore, the dose of 15 mg/kg FFA in adult mouse, based on body surface areas in accordance with Reagan-Shaw and co-workers, translates to the clinically effective range [1.8 mg/kg/day (child) or 1.2 mg/kg/day (adult)] used in patients. The presently disclosed FFA doses are also similar to those in the rodent studies, which established the original usefulness of this drug.

[4] = tested on: DBA/1 mice; assay: Audiogenic seizures (AGSz) and S-IRA in DBA/1 mice, initial testing protocol (30 min, 12 h, 24 h, then 24 h intervals); assay type: in vivo, mouse
From the text: These studies involved age matched (<80 days) male DBA/1 mice obtained from ENVIGO. Because there were no significant sex differences in the AGSz incidence (frequency), severity and S-IRA susceptibility in DBA/1 mice, males were used in this study. The mice were primed as described in previous studies (Faingold et al., (2010). Epilepsy Behav. 17:436-40; Faingold, et al. (2011) Brain Res. 1418:104-10; Faingold, et al., (2011) Epilepsy Behav. 22:186-90). Briefly, the mice were maintained on an ad libitum diet under a 12 h light-dark cycle in a temperature and humidity-controlled laboratory animal medicine facility. Starting at postnatal day 23-25, the mice were primed and tested for consistent susceptibility to AGSz and S-IRA by presenting an intense acoustic stimulus, as described previously.
(§1) The typical seizure semiology in the DBA/1 mice begins with a wild running phase, followed by clonic-tonic seizures and then tonic hind-limb extension that immediately leads to S-IRA during post-ictal behavioral depression (PID). The onset of S-IRA was visually determined by the occurrence of respiratory failure following loss of the righting reflex, relaxation of the pinnae, and then a generalized loss of muscle tone. These behaviors are reliable indicators of imminent sudden death in DBA mice. Resuscitation was initiated within 10 s after pinna relaxation and the generalized loss of muscle tone, which was effective in reversing S-IRA and reviving >90% of the mice. The mice were placed in a supine position, and a polyethylene tube (4.4 mm external diameter) connected to the outflow of a rodent respirator (Harvard Apparatus 680), pumping one cc of room air at 200 strokes/min, was the placed over the nostrils, which produced observable displacement of the chest. Respiratory support was provided until spontaneous breathing rhythm returned, which required ˜19 sec. The mice were monitored until they regained the righting reflex and then returned to their home cage. Video recordings of seizure behaviors and recovery were made for off-line evaluation and analysis, including the duration of PID, as indicated by time from muscle tone loss to return of the righting reflex.
The experiments herein disclosed examined the dose-response relationship of FFA (10-40 mg/kg, i.p.) on AGSz-induced behaviors in DBA/1 mice compared to vehicle (saline) treated control mice using different seizure-testing protocols. This initial protocol involved induction of AGSz at 30 min, 12 h and 24 h after drug administration, and subsequently at 24 h intervals until susceptibility to S-IRA returned. These studies were aimed at determining whether FFA can reduce the incidence (frequency) and severity of AGSz and susceptibility to S-IRA. […] To determine the effect of FFA on the severity of AGSz in DBA/1 mice, the ordinal scoring system of De Sarro and coworkers was used: no seizure=0; wild running=1; clonic seizure=2; tonic seizure=3; death/S-IRA=4. The median effective dose (ED50) for FFA for blocking AGSz at 30 min following the i.p. injection in DBA/1 mice was calculated using a second order polynomial equation (y=65.113x^2-2.0715x-63.578) that gave the best fit (R^2=0.9989).
The videos of seizure behaviors were analyzed visually, and the incidence (frequency) of AGSz, seizure severity, and incidence (frequency) of S-IRA following drug treatment were compared statistically to vehicle controls using the Chi-square, Mann-Whitney U or paired samples t-test with SPSS software. The ED50 was calculated using SigmaPlot 13 and Microsoft® Excel. The experimental protocols used in these studies were approved by the Laboratory Animal Care and Use Committee of Southern Illinois University School of Medicine, which are in accordance with National Institutes of Health guidelines for the care and use of laboratory animals. Measures to minimize animal usage as well as pain and discomfort were included in these procedures.

[5] = tested on: DBA/1 mice; assay: AGSz and S-IRA in DBA/1 mice tested for the first time at 16 h after FFA pretreatment; assay type: in vivo, mouse
From the text: as §1
FIGS. 4A and 4B illustrate the reduction in the incidence of severe seizures and prevention of S-IRA by FFA pretreatment. In subsequent experiments, AGSz were examined in DBA/1 mice that were treated with 15 mg/kg of FFA i.p. but were initially tested at 16 h. […] [#p<0.001 (Chi-square test] (FIG. 4B). The return of S-IRA susceptibility (94.5%) in the FFA treated mice occurred at 48 h consistent with the previous findings (FIG. 2C).

[6] = 20 and 40 mg/kg i.p., starting at 30 min, vs saline
[7] = 15 mg/kg i.p., first tested at 16 h (n=73)

## CCNC(C)Cc1cccc(C(F)(F)F)c1 (racemic) [FFA, 3-trifluoromethyl-N-ethylamphetamine]
[1]
  number of seizures experienced by the patients: reduction
[2]
  blocking electrographic and seizure-like behavioral activity: effective
[3]
  plasma level of FFA and area under the curve vs levels in Dravet syndrome patients after single oral dose (0.8 mg/kg): comparable
[4]; 10 mg/kg
  incidence (frequency) of S-IRA: not affected
  incidence of tonic seizures: not affected
[4]; 10 mg/kg i.p.
  incidence (frequency) of AGSz: No significant effect
[4]; 10 mg/kg, at 12 h
  AGSz severity: significantly reduced
  reduction of S-IRA: 36.4%
  reduction of tonic seizure: 54.6%
[4]; 10 mg/kg, at 12 h, not statistically significant
  mice showing S-IRA blockade following tonic seizure (selective S-IRA block): 18.2%
[4]; 15 mg/kg
  duration of AGSz blockade: < 24 h
  onset of AGSz blockade: 12 h
  tonic seizure blocking effect: delayed and transient
[4]; 20 mg/kg
  return of maximal seizure severity: 24 h
[4]; 40 mg/kg
  duration of seizure severity decrease: up to 8 days
  mice continuing to show reduced susceptibility to tonic AGSz and S-IRA for up to 8 days: 33.3%
  return of maximal seizure severity: 48 h
[4]; 10 and 15 mg/kg
  time at which reduction in severity score occurred: 12 h
[4]; 15, 20 and 40 mg/kg i.p. vs saline treated controls
  incidence (frequency) of AGSz: significantly reduce
[4]; 15, 20 and 40 mg/kg i.p., beginning at 30 min, vs saline
  incidence (frequency) of S-IRA: significant reduction
[4]; 20-40 mg/kg
  duration of reductions of seizure incidence, severity and S-IRA susceptibility: ≥ 48 h
[4]; 20 and 40 mg/kg i.p., at 30 minutes, vs saline-treated controls
  susceptibility to AGSz: significantly reduced
[4]; [6]
  median AGSz severity score: significant reduction
  tonic seizure incidence: significant reduction
[4]; FFA-treated mice, initial protocol
  return of S-IRA susceptibility: ≤ 72 h
[4]; Mus musculus, ip, 0.5 h, 30 min after i.p. injection, read-out: ED50 for blockade of AGSz
  ED50: 21.7 mg/kg
[5]; [7]
  overall incidence of S-IRA: 21.9%
  overall incidence of tonic seizures: 68.5%
[5]; 15 mg/kg, 16 h (n=50)
  incidence of selective S-IRA blockade among mice that continued to display tonic seizures: 68%
[5]; at 48 h after 15 mg/kg
  return of S-IRA susceptibility: 94.5%

Source: patent publication US11571397B2, “Compositions and methods for treating seizure-induced sudden death” (ZOGENIX INTERNATIONAL LIMITED, priority 2018, dated 2023)
